Reference: patent US20230108699A1, “HEART EXTRACELLULAR MATRIX-DERIVED SCAFFOLD FOR CULTURE AND TRANSPLANTATION OF CARDIAC ORGANOID AND METHOD OF PREPARING THE SAME” (CELLARTGEN INC., priority 2020, published 2023)

Test system: human cardiac organoid cultured in the HEM hydrogel
Test: Drug reactivity of HEM scaffold-based human cardiac organoid by calcium imaging
Format: cell-based
Conditions: 7th day of culture, HEM hydrogel 4 mg/ml
Method: In order to check the reactivity of the human cardiac organoid cultured in the HEM hydrogel (4 mg/ml) to drugs, treatment with two representative drugs (isoproterenol and propranolol) affecting the heart rate was performed on the 7th day of culture, and reaction of the organoid thereto was checked through calcium imaging.

CC(C)NCC(O)c1ccc(O)c(O)c1 (centres unmarked) [isoproterenol]
beating of cardiac organoid (isoproterenol 1 μM): increased

CC(C)NCC(O)COc1cccc2ccccc12 (centres unmarked) [propranolol]
beating of cardiac organoid (propranolol 10 μM): decreased
